Measurements as given in PubChem BioAssay AID1259407 (Chemical Carcinogenesis Research Information System (CCRIS), 2018).
Active and inactive are the calls of the source. No rule for the calls is given here.

Tested on: CCRIS mutagenicity, Ames/micronucleus/aberration tests
Experiment: CCRIS mutagenicity studies
[1] = Test System: AMES SALMONELLA TYPHIMURIUM, Strain/Indicator: TA98, Metabolic Activation: NONE, Method: PREINCUBATION
[2] = Test System: AMES SALMONELLA TYPHIMURIUM, Strain/Indicator: TA100, Metabolic Activation: NONE, Method: PREINCUBATION
[3] = Test System: AMES SALMONELLA TYPHIMURIUM, Strain/Indicator: TA100, Metabolic Activation: NONE, Method: STANDARD PLATE
[4] = Test System: AMES SALMONELLA TYPHIMURIUM, Strain/Indicator: TA100, Metabolic Activation: RAT, LIVER, S-9, AROCLOR 1254, Method: STANDARD PLATE
[5] = Test System: AMES SALMONELLA TYPHIMURIUM, Strain/Indicator: TA1535, Metabolic Activation: NONE, Method: PREINCUBATION
[6] = Test System: AMES SALMONELLA TYPHIMURIUM, Strain/Indicator: TA98, Metabolic Activation: RAT, LIVER, S-9, AROCLOR 1254, Method: STANDARD PLATE

With `C[C@H](CCC(=O)O)[C@H]1CC[C@H]2[C@@H]3CC[C@@H]4C[C@H](O)CC[C@]4(C)[C@H]3CC[C@]12C` the mutagenic call (Test System: AMES SALMONELLA TYPHIMURIUM, Strain/Indicator: TA97, Metabolic Activation: HAMSTER, LIVER, S-9, AROCLOR 1254 (10 OR 30%), Method: PREINCUBATION) was “inactive; negative”, the mutagenic call (Test System: AMES SALMONELLA TYPHIMURIUM, Strain/Indicator: TA97, Metabolic Activation: NONE, Method: PREINCUBATION) was “inactive; negative” and the mutagenic call (Test System: AMES SALMONELLA TYPHIMURIUM, Strain/Indicator: TA97, Metabolic Activation: RAT, LIVER, S-9, AROCLOR 1254 (10%), Method: PREINCUBATION) was “inactive; negative”. The mutagenic call (Test System: AMES SALMONELLA TYPHIMURIUM, Strain/Indicator: TA97, Metabolic Activation: RAT, LIVER, S-9, AROCLOR 1254 (30%), Method: PREINCUBATION) was “inactive; negative”, the mutagenic call (Test System: AMES SALMONELLA TYPHIMURIUM, Strain/Indicator: TA98, Metabolic Activation: HAMSTER, LIVER, S-9, AROCLOR 1254 (10 OR 30%), Method: PREINCUBATION) was “inactive; negative” and the mutagenic call (Test System: AMES SALMONELLA TYPHIMURIUM, Strain/Indicator: TA98, Metabolic Activation: NONE, Method: FLUCTUATION TEST) was “inactive; negative”. For the same molecule, the mutagenic call [1] was “inactive; negative”, the mutagenic call (Test System: AMES SALMONELLA TYPHIMURIUM, Strain/Indicator: TA98, Metabolic Activation: RAT, LIVER, S-9, AROCLOR 1254 (10%), Method: PREINCUBATION) was “inactive; negative” and the mutagenic call (Test System: AMES SALMONELLA TYPHIMURIUM, Strain/Indicator: TA98, Metabolic Activation: RAT, LIVER, S-9, AROCLOR 1254 (30%), Method: PREINCUBATION) was “inactive; negative”. For the same molecule, the mutagenic call (Test System: AMES SALMONELLA TYPHIMURIUM, Strain/Indicator: TA98, Method: PREINCUBATION) was “inactive; negative”, the mutagenic call (Test System: AMES SALMONELLA TYPHIMURIUM, Strain/Indicator: TA100, Metabolic Activation: HAMSTER, LIVER, S-9, AROCLOR 1254 (10 OR 30%), Method: PREINCUBATION) was “inactive; negative” and the mutagenic call (Test System: AMES SALMONELLA TYPHIMURIUM, Strain/Indicator: TA100, Metabolic Activation: NONE, Method: FLUCTUATION TEST) was “inactive; negative”. The mutagenic call [2] was “inactive; negative”, the mutagenic call [3] was “inactive; negative” and the mutagenic call (Test System: AMES SALMONELLA TYPHIMURIUM, Strain/Indicator: TA100, Metabolic Activation: RAT, LIVER, S-9, AROCLOR 1254 (10%), Method: PREINCUBATION) was “inactive; negative”. For the same molecule, the mutagenic call (Test System: AMES SALMONELLA TYPHIMURIUM, Strain/Indicator: TA100, Metabolic Activation: RAT, LIVER, S-9, AROCLOR 1254 (30%), Method: PREINCUBATION) was “inactive; negative”, the mutagenic call [4] was “inactive; negative” and the mutagenic call (Test System: AMES SALMONELLA TYPHIMURIUM, Strain/Indicator: TA1535, Metabolic Activation: HAMSTER, LIVER, S-9, AROCLOR 1254 (10 OR 30%), Method: PREINCUBATION) was “inactive; negative”. For the same molecule, the mutagenic call [5] was “inactive; negative”, the mutagenic call (Test System: AMES SALMONELLA TYPHIMURIUM, Strain/Indicator: TA1535, Metabolic Activation: RAT, LIVER, S-9, AROCLOR 1254 (10%), Method: PREINCUBATION) was “inactive; negative” and the mutagenic call (Test System: AMES SALMONELLA TYPHIMURIUM, Strain/Indicator: TA1535, Metabolic Activation: RAT, LIVER, S-9, AROCLOR 1254 (30%), Method: PREINCUBATION) was “inactive; negative”. For the same molecule, the mutagenic call (Test System: E. COLI, Strain/Indicator: WP2 UVRA, Metabolic Activation: HAMSTER, LIVER, S-9, AROCLOR 1254, Method: STANDARD PLATE) was “inactive; negative”, the mutagenic call (Test System: E. COLI, Strain/Indicator: WP2 UVRA, Metabolic Activation: HAMSTER, LIVER, S-9, Method: STANDARD PLATE) was “inactive; negative” and the mutagenic call (Test System: E. COLI, Strain/Indicator: WP2 UVRA, Metabolic Activation: MOUSE, LIVER, S-9, AROCLOR 1254, Method: STANDARD PLATE) was “inactive; negative”. For the same molecule, the mutagenic call (Test System: E. COLI, Strain/Indicator: WP2 UVRA, Metabolic Activation: MOUSE, LIVER, S-9, Method: STANDARD PLATE) was “inactive; negative”, the mutagenic call (Test System: E. COLI, Strain/Indicator: WP2 UVRA, Metabolic Activation: NONE, Method: STANDARD PLATE) was “inactive; negative” and the mutagenic call (Test System: E. COLI, Strain/Indicator: WP2 UVRA, Metabolic Activation: RAT, LIVER, S-9, AROCLOR 1254, Method: STANDARD PLATE) was “inactive; negative”. The mutagenic call (Test System: E. COLI, Strain/Indicator: WP2 UVRA, Metabolic Activation: RAT, LIVER, S-9, Method: STANDARD PLATE) was “inactive; negative”, the mutagenic call (Test System: MOUSE LYMPHOMA, Strain/Indicator: L5178Y (TK+/TK-), Metabolic Activation: RAT, LIVER, S-9, AROCLOR 1254, Method: SUSPENSION/PLATE) was “inactive; negative” and the mutagenic call (Test System: MOUSE LYMPHOMA, Strain/Indicator: L5178Y (TK+/TK-), Metabolic Activation: RAT, LIVER, S-9, Method: SUSPENSION/PLATE) was “inactive; negative”.
With `C[C@]12CCC(=O)C=C1[C@@H]1C[C@@H]1[C@H]1[C@@H]3[C@@H]4C[C@@H]4[C@@]4(CCC(=O)O4)[C@@]3(C)CC[C@@H]12` the mutagenic call (End Point: IN VITRO CHROMOSOMAL ABERRATIONS, Test System: HUMAN PERIPHERAL LYMPHOCYTES, Metabolic Activation: NONE) was “inactive; negative”, the mutagenic call (End Point: IN VITRO CHROMOSOMAL ABERRATIONS, Test System: HUMAN PERIPHERAL LYMPHOCYTES, Metabolic Activation: RAT, LIVER, S-9, AROCLOR 1254) was “inactive; negative” and the mutagenic call (End Point: IN VIVO MICRONUCLEUS, Test System: BONE MARROW POLYCHROMATIC ERYTHROCYTES, Species: MOUSE, Strain/Sex: NMRI/MALE, FEMALE, Route: INTRAGASTRIC) was “inactive; negative”. For the same molecule, the mutagenic call [1] was “inactive; negative”, the mutagenic call (Test System: AMES SALMONELLA TYPHIMURIUM, Strain/Indicator: TA98, Metabolic Activation: NONE, Method: STANDARD PLATE) was “inactive; negative” and the mutagenic call (Test System: AMES SALMONELLA TYPHIMURIUM, Strain/Indicator: TA98, Metabolic Activation: RAT, LIVER, S-9, AROCLOR 1254, Method: PREINCUBATION) was “inactive; negative”. For the same molecule, the mutagenic call [6] was “inactive; negative”, the mutagenic call [2] was “inactive; negative” and the mutagenic call [3] was “inactive; negative”. The mutagenic call (Test System: AMES SALMONELLA TYPHIMURIUM, Strain/Indicator: TA100, Metabolic Activation: RAT, LIVER, S-9, AROCLOR 1254, Method: PREINCUBATION) was “inactive; negative”, the mutagenic call [4] was “inactive; negative” and the mutagenic call [5] was “inactive; negative”. For the same molecule, the mutagenic call (Test System: AMES SALMONELLA TYPHIMURIUM, Strain/Indicator: TA1535, Metabolic Activation: NONE, Method: STANDARD PLATE) was “inactive; negative”, the mutagenic call (Test System: AMES SALMONELLA TYPHIMURIUM, Strain/Indicator: TA1535, Metabolic Activation: RAT, LIVER, S-9, AROCLOR 1254, Method: PREINCUBATION) was “inactive; negative” and the mutagenic call (Test System: AMES SALMONELLA TYPHIMURIUM, Strain/Indicator: TA1535, Metabolic Activation: RAT, LIVER, S-9, AROCLOR 1254, Method: STANDARD PLATE) was “inactive; negative”. For the same molecule, the mutagenic call (Test System: AMES SALMONELLA TYPHIMURIUM, Strain/Indicator: TA1537, Metabolic Activation: NONE, Method: PREINCUBATION) was “inactive; negative”, the mutagenic call (Test System: AMES SALMONELLA TYPHIMURIUM, Strain/Indicator: TA1537, Metabolic Activation: NONE, Method: STANDARD PLATE) was “inactive; negative” and the mutagenic call (Test System: AMES SALMONELLA TYPHIMURIUM, Strain/Indicator: TA1537, Metabolic Activation: RAT, LIVER, S-9, AROCLOR 1254, Method: PREINCUBATION) was “inactive; negative”. For the same molecule, the mutagenic call (Test System: AMES SALMONELLA TYPHIMURIUM, Strain/Indicator: TA1537, Metabolic Activation: RAT, LIVER, S-9, AROCLOR 1254, Method: STANDARD PLATE) was “inactive; negative”, the mutagenic call (Test System: AMES SALMONELLA TYPHIMURIUM, Strain/Indicator: TA1538, Metabolic Activation: NONE, Method: PREINCUBATION) was “inactive; negative” and the mutagenic call (Test System: AMES SALMONELLA TYPHIMURIUM, Strain/Indicator: TA1538, Metabolic Activation: NONE, Method: STANDARD PLATE) was “inactive; negative”. The mutagenic call (Test System: AMES SALMONELLA TYPHIMURIUM, Strain/Indicator: TA1538, Metabolic Activation: RAT, LIVER, S-9, AROCLOR 1254, Method: PREINCUBATION) was “inactive; negative”, the mutagenic call (Test System: AMES SALMONELLA TYPHIMURIUM, Strain/Indicator: TA1538, Metabolic Activation: RAT, LIVER, S-9, AROCLOR 1254, Method: STANDARD PLATE) was “inactive; negative” and the mutagenic call (Test System: CHINESE HAMSTER V-79, Strain/Indicator: V-79 (HGPRT)/6-THIOGUANINE, Metabolic Activation: NONE) was “inactive; negative”. For the same molecule, the mutagenic call (Test System: CHINESE HAMSTER V-79, Strain/Indicator: V-79 (HGPRT)/6-THIOGUANINE, Metabolic Activation: RAT, LIVER, S-9, AROCLOR 1254) was “inactive; negative”.
For `Cc1nc2c(ccc3ccc4ccc(O)cc4c32)[nH]1`, the mutagenic call [6] was “active; positive” and the mutagenic call (Test System: AMES SALMONELLA TYPHIMURIUM, Strain/Indicator: TA98, Metabolic Activation: RAT, LIVER, S-9, AROCLOR, Method: STANDARD PLATE) was “active; positive”.
